Experimental data reported in publication PMC10967270, “Intrapulmonary and Systemic Pharmacokinetics of Colistin Following Nebulization of Low-Dose Colistimethate Sodium in Patients with Ventilator-Associated Pneumonia Caused by Carbapenem-Resistant Acinetobacter baumannii” (Antibiotics, 2024).
Positions of bridges follow the written chain, without caps; N, C: chain ends. Non-standard residues stand in square brackets, D forms with d. Residues, ends and D or L forms follow the SMILES beside them. *: point of attachment. X1 = CC[C@H](C)CCCCC(=O)*; Dab = NCC[C@H](N)C(=O)O

Columns and labels:
A. baumannii = conditions: murine lung infection model; cited from earlier work
[1] = Colistin concentration in plasma after CMS nebulization; assay type: in vivo; conditions: human, inhaled or intranasal, 20 patients
Protocol: (§1) Patients were treated with CMS (Xellia Pharmaceuticals ApS, Copenhagen, Denmark) at a total of 3.75 MIU (equivalent to 300 mg of CMS or 112.5 mg of CBA) administered four times a day at 6 h intervals. CMS was dissolved in 5 mL of normal saline and administered over 30 min through a jet nebulizer (Sileo 54, Macjin Medical, Seoul, Republic of Korea) connected to the ventilator circuit. Bronchoalveolar lavage fluid (BALF) was obtained by instilling 20 mL of normal saline into the right middle lobe or left lingular segmental bronchus using a bronchoscope, followed by immediate aspiration and collection into a syringe. Samples were collected immediately before the nebulization treatment and at 1, 3, and 5 h after the start of the treatment. Blood samples were collected before the nebulization treatment and at 1, 2, 3, and 5 h thereafter. Both BALF and blood samples were centrifuged at 3000× g for 10 min within 1 h of collection and the supernatant was isolated. Samples were then stored in a refrigerator at a temperature below −70 °C.
A validated liquid chromatography–tandem mass spectrometry assay was used to determine colistin concentrations in BALF and plasma samples. The HPLC equipment consisted of an Agilent 1200 series modular system and an Atlantis C18 column (Company, Waters, Milford, MA, USA) (2.1 mm × 150 mm, 3.0 μm). Mobile phases A and B were water and acetonitrile, respectively. Both phases contained 0.1% formic acid. A gradient elution program was started at 10% B, increased to 35% for 1 min, maintained at this composition for 3.8 min, and returned to the initial composition for 5 min to re-equilibrate the column. Mass spectrometry (MS) was performed using a triple-quadruple mass spectrometer (SCIEX QTRAP5500, Applied Biosystems, Foster City, CA, USA) with an electrospray ionization (ESI) interface. The ESI source was set to positive ionization mode. The parent to product transition (m/z) was 578.483→101.071 for colistin A, 585.453→101.071 for colistin B, and 602.527→101.000 for polymyxin B. Data acquisition and processing were performed using the Analyst software (version 1.7.1; Applied Biosystems, Foster City, CA, USA). Stock solutions of colistin and IS were prepared in deionized water at concentrations of 10 mg/mL, and both were stored at −20 °C. Working solutions of colistin were prepared in deionized water (dilutions of 2, 5, 10, 50, 100, 500, and 1000 μg/mL). Calibration standards were prepared by spiking 247.5 μL of drug-free plasma with 2.5 μL of colistin working solution. Low (colistin A; 11.16 ng/mL, colistin B; 48.84 ng/mL), moderate (colistin A; 186 ng/mL, colistin B; 814 ng/mL), and high (colistin A; 1488 ng/mL, colistin B; 6512 ng/mL) concentrations of QC samples were prepared. Sample pretreatment involved a solid phase extraction. A 250 μL aliquot of plasma was pipetted into a 1.5 mL Eppendorf tube, to which 10 μL of IS (10 μg/mL, polymyxin B) and 740 μL of deionized water were added. This mixture was loaded into a cartridge that had been preconditioned twice with 1 mL of methanol and 1 mL of deionized water. After the plasma mixture was loaded, the cartridge was washed with 1 mL of deionized water. One milliliter of methanol including 0.1% formic acid was used for extraction. Extraction liquid was evaporated by vacuum concentrator (Speedvac, Thermo Fisher Scientific Inc., Waltham, MA, USA) at 45 °C for 2.5 h. Samples were reconstituted in 100 μL deionized water containing 0.1% formic acid. […]

[2] = Colistin concentration in epithelial lining fluid (BALF, urea-corrected) after CMS nebulization; assay type: in vivo, human
Protocol: as §1
A validated liquid chromatography–tandem mass spectrometry assay was used to determine colistin concentrations in BALF and plasma samples. The HPLC equipment consisted of an Agilent 1200 series modular system and an Atlantis C18 column (Company, Waters, Milford, MA, USA) (2.1 mm × 150 mm, 3.0 μm). Mobile phases A and B were water and acetonitrile, respectively. Both phases contained 0.1% formic acid. A gradient elution program was started at 10% B, increased to 35% for 1 min, maintained at this composition for 3.8 min, and returned to the initial composition for 5 min to re-equilibrate the column. Mass spectrometry (MS) was performed using a triple-quadruple mass spectrometer (SCIEX QTRAP5500, Applied Biosystems, Foster City, CA, USA) with an electrospray ionization (ESI) interface. The ESI source was set to positive ionization mode. The parent to product transition (m/z) was 578.483→101.071 for colistin A, 585.453→101.071 for colistin B, and 602.527→101.000 for polymyxin B. Data acquisition and processing were performed using the Analyst software (version 1.7.1; Applied Biosystems, Foster City, CA, USA). Stock solutions of colistin and IS were prepared in deionized water at concentrations of 10 mg/mL, and both were stored at −20 °C. Working solutions of colistin were prepared in deionized water (dilutions of 2, 5, 10, 50, 100, 500, and 1000 μg/mL). Calibration standards were prepared by spiking 247.5 μL of drug-free plasma with 2.5 μL of colistin working solution. Low (colistin A; 11.16 ng/mL, colistin B; 48.84 ng/mL), moderate (colistin A; 186 ng/mL, colistin B; 814 ng/mL), and high (colistin A; 1488 ng/mL, colistin B; 6512 ng/mL) concentrations of QC samples were prepared. Sample pretreatment involved a solid phase extraction. A 250 μL aliquot of plasma was pipetted into a 1.5 mL Eppendorf tube, to which 10 μL of IS (10 μg/mL, polymyxin B) and 740 μL of deionized water were added. This mixture was loaded into a cartridge that had been preconditioned twice with 1 mL of methanol and 1 mL of deionized water. After the plasma mixture was loaded, the cartridge was washed with 1 mL of deionized water. One milliliter of methanol including 0.1% formic acid was used for extraction. Extraction liquid was evaporated by vacuum concentrator (Speedvac, Thermo Fisher Scientific Inc., Waltham, MA, USA) at 45 °C for 2.5 h. Samples were reconstituted in 100 μL deionized water containing 0.1% formic acid. Subsequently, samples were vortexed for 5 min and centrifuged at 13,200 rpm for 10 min, and […] of supernatant was injected into the LC-MS system.
Colistin concentrations, encompassing both colistin A and colistin B, were determined and collectively referred to as “colistin”. The concentration of colistin in the epithelial lining fluid (ELF), termed CELF, was calculated using the formula CELF = CBAL (Ureaplasma/UreaBAL), where CBAL is the colistin concentration measured in BALF. […]

**Q.** For `CC[C@H](C)CCCCC(=O)N[C@@H](CCN)C(=O)N[C@H](C(=O)N[C@@H](CCN)C(=O)N[C@H]1CCNC(=O)[C@H]([C@@H](C)O)NC(=O)[C@H](CCN)NC(=O)[C@H](CCN)NC(=O)[C@H](CC(C)C)NC(=O)[C@@H](CC(C)C)NC(=O)[C@H](CCN)NC1=O)[C@@H](C)O` [colistin] (X1-[Dab]T[Dab][Dab][Dab][dL]L[Dab][Dab]T; lactam 4-C), which “fAUC/MIC target values for a 2 log10 kill” value (A. baumannii) is on record?
**A.** Its value is 22.5–95.0 mg/L·h.

**Q.** And the level at 1 h ([1]; 1 h after start (time by position in Figure 1c), CMS 0.9375 MIU nebulized over 30 min, LC-MS/MS, read-out: Median colistin concentration in plasma)?
**A.** Its level at 1 h is 19.2 ng/mL.

**Q.** And the level at 2 h ([1]; 2 h after start (time by position in Figure 1c), CMS 0.9375 MIU nebulized over 30 min, LC-MS/MS, read-out: Median colistin concentration in plasma)?
**A.** Its level at 2 h is 29.8 ng/mL.

**Q.** And the level at 3 h ([1]; 3 h after start (time by position in Figure 1c), CMS 0.9375 MIU nebulized over 30 min, LC-MS/MS, read-out: Median colistin concentration in plasma)?
**A.** The level at 3 h was 37.7 ng/mL.

**Q.** What about the level at 5 h ([1]; 5 h after start (time by position in Figure 1c), CMS 0.9375 MIU nebulized over 30 min, LC-MS/MS, read-out: Median colistin concentration in plasma) of the same molecule?
**A.** Its level at 5 h is 32.6 ng/mL.

**Q.** And the Cmax ([1]; nebulized CMS 0.9375 MIU over 30 min, monitored over 5 h, read-out: Observed peak colistin concentration in plasma, median (IQR))?
**A.** The Cmax was 43.5 ng/mL.

**Q.** What about the level at 1 h ([2]; human, epithelial lining fluid, inhaled or intranasal, 1 h after start (time by position in Figure 1a), CMS 0.9375 MIU nebulized over 30 min, LC-MS/MS, 20 patients, read-out: Median colistin concentration in ELF) of the same molecule?
**A.** The level at 1 h was 11800 ng/mL.

**Q.** What about the level at 3 h ([2]; human, epithelial lining fluid, inhaled or intranasal, 3 h after start (time by position in Figure 1a), CMS 0.9375 MIU nebulized over 30 min, LC-MS/MS, 20 patients, read-out: Median colistin concentration in ELF) of the same molecule?
**A.** Its level at 3 h is 15400 ng/mL.

**Q.** What about the level at 5 h ([2]; human, epithelial lining fluid, inhaled or intranasal, 5 h after start (time by position in Figure 1a), CMS 0.9375 MIU nebulized over 30 min, LC-MS/MS, 20 patients, read-out: Median colistin concentration in ELF) of the same molecule?
**A.** The level at 5 h was 8160 ng/mL.

**Q.** What about the Kp at 1 h ([2]; human, epithelial lining fluid, inhaled or intranasal, at 1 h, median concentrations, nebulized CMS 0.9375 MIU, read-out: Colistin concentration in ELF relative to plasma) of the same molecule?
**A.** The Kp at 1 h was ~614.

**Q.** And the Kp at 3 h ([2]; human, epithelial lining fluid, inhaled or intranasal, at 3 h, median concentrations, nebulized CMS 0.9375 MIU, read-out: Colistin concentration in ELF relative to plasma)?
**A.** Its Kp at 3 h is ~408.

**Q.** And the Kp at 5 h ([2]; human, epithelial lining fluid, inhaled or intranasal, at 5 h, median concentrations, nebulized CMS 0.9375 MIU, read-out: Colistin concentration in ELF relative to plasma)?
**A.** Its Kp at 5 h is ~250.

**Q.** What about the “Observed peak colistin concentration in ELF, median (IQR)” value ([2]; nebulized CMS 0.9375 MIU over 30 min, monitored over 5 h, 20 patients) of the same molecule?
**A.** Its value is 21,950 (10,440–28,389) μg/L.
